According to patent US7407939B2, “Protein kinase inhibitors comprising ATP mimetics conjugated to peptides or peptidomimetics” (CureGenics Ltd., priority 2001, dated 2008):
Where two headings read alike, the source gives them in different places. *1 amine or outer side, *2 acyl side, *3 side chain or, on linkers, in order; H or OH if unused. Where a SMILES comes first, the peptide text is derived from it. Side-chain parts run from the residue outwards. [ ]: non-standard residue; d: D form. The star is where a group is joined. Isoquinoline5sulfonyl = O=S(=O)(c1cccc2cnccc12)*; Ethylenediamine = C(CN[*:2])N[*:1]; hLeu = CC(C)CC[C@H](N)C(=O)O; Nle = CCCC[C@H](N)C(=O)O; Dab = NCC[C@H](N)C(=O)O; Nva = CCC[C@H](N)C(=O)O; βAla = NCCC(=O)O

Experiments:
[1] = molecular target: T1, PKB (Homo sapiens, UniProt P31749); experiment: PKB in vitro kinase activity assay (soluble His-HA-PKB / SPA bead screening); format: biochemical
T1 construct: His; HA; made in house
Protocol: The enzyme activity measurement is performed as described in the assay for PKA.
Kinase reaction was carried out in final volume of 50 μl. […] The kinase reaction was started by adding 10 μl of 2 μM cold ATP and 0.25 μCi of [γ^33P]-ATP in kinase buffer. The plates were incubated at 27° C. for 1 hr. At the end of the incubation the reaction was stopped by 200 μl of PBS containing 0.1% Triton X-100, 5 mM EDTA, 1 mM ATP and 0.3 mg/ml of Streptavidin-coated SPA bead (Amersham Pharmacia Biotech). After 15 min incubation at room temperature, the reaction mixtures were filtered using Packard GF/B 96-well plates. The plates were washed twice with 2M NaCl and 1% orthophosphoric acid followed by ethanol wash and 1 h air-dry. The radioactivity was counted using microplate counter Packard Top Count

[2] = molecular target: T2, PKA (Bos taurus, UniProt P00517); experiment: In vitro PKA kinase activity assay (kemptide / SPA beads); format: biochemical;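 also: Cell-free assay of purified PKA catalytic subunit phosphorylating the 7-mer kemptide substrate, run in MOPS buffer with magnesium acetate and BSA, with blank wells lacking enzyme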
T2 construct: purchased Promega
Protocol: PKA enzyme was purchased from Promega. PKA activity is assayed on a 7-mer peptide, LRRASLG, known as kemptide. The assay is carried out in 96-well plates, in a final volume of 50 μl per well. The reaction mixture includes various concentrations of the inhibitor, 50 mM MOPS, 10 mM MgAc, 0.2 mg/ml BSA, 10 μM ATP, 20 μM Kemptide and 1 μCi γ^32P ATP. Reaction is started with addition of 15 μl of the catalytic subunit of PKA diluted in 0.1 mg/ml BSA, 0.4 U/well. Two blank wells without enzyme are included in every assay. The plates are agitated continuously at 30° C. for 10′ or at 27° C. for 1 hour. Reaction is stopped by addition of 12 μl 200 mM EDTA. 20 μl aliquots of the assay mixture are spotted onto 2 cm^2 phosphocellulose strips (e.g. Whatman P81) and immersed in 75 mM phosphoric acid (10 ml per sample). The phosphocellulose strips are washed 6 times. Washes are done in continuous swirling for 5 minutes, last wash is in acetone. After air drying the strips, radiation is measured by scintillation spectrometry.
Screening compounds for PKA inhibition was performed in 96-well plate using SPA beads, as described below for PKB with the following modifications; The enzyme substrate was 5 μM biotinylated-kemptide peptide (biotin-[sequence]). The kinase buffer was 50 mM MOPS pH 7, 0.2 mg/ml BSA, 10 mM Magnesium acetate. PKA (0.4 unit) diluted in 0.1 mg/ml BSA was added to each well.

[3] = test system: PC-3 cells; experiment: ssDNA apoptosis ELISA (induction of apoptosis in prostate cancer cells); format: cell-based; details: 50 μM, optical density of treated divided by untreated cells
Protocol: Cells were assayed for Apoptosis using the ssDNA Apoptosis ELISA kit (Chemicon International Inc.). Cells were seeded in 96-well plates (5000 cells/well) and treated with different concentrations of the inhibitors. At different time point, plates were centrifuges at 200 g for 5 min, medium was removed and the cells were fixed with 80% methanol in PBS for 30 min at room temperature. Plates were dried by floating in a waterbath at 37° C. for 20 minutes. 50 μl of Formamide was added to each well and incubate at room temperature for 10 min. Plates were heated to 75° C. in a circulating waterbath for 10 min, cooled in refrigerator for 5 min, and then formamide was removed. Plates were blocked by 3% non-fat dry milk in distilled water (w/v) for 1 hr at 37° C. Blocking was removed and 100 μl of antibody mixture (primary monoclonal antibody to ssDNA and HRP-labelled anti-mouse IgM) was added to each well. Plates were monitored for colour development by ABTS using microplate reader at 405 nm.
DNA in apoptotic cells is sensitive to denaturation by formamide in contrast to necrotic cells. This sensitivity is due to changes in apoptotic cells chromatin. The specific denaturation was detected with monoclonal antibody to single stranded DNA. Using ssDNA Apoptosis ELISA kit (Chemicon International, Inc.) chimeric compounds were analyzed for their potential to induce apoptosis in PC-3 cells compared to TRAIL (TNF-related apoptosis-inducing ligand), a known apoptotic agent (R&D Systems, Inc.). Results are presented in values of apoptotic index which is calculated by dividing the optical density of treated and untreated cells.

[4] = chimeric PTR compounds (peptide conjugated to isoquinoline small molecule), read-out: PKB IC50
[5] = chimeric PTR compounds (peptide conjugated to isoquinoline small molecule), read-out: PKA IC50

T1 sequence (P31749 whole entry, species assumed): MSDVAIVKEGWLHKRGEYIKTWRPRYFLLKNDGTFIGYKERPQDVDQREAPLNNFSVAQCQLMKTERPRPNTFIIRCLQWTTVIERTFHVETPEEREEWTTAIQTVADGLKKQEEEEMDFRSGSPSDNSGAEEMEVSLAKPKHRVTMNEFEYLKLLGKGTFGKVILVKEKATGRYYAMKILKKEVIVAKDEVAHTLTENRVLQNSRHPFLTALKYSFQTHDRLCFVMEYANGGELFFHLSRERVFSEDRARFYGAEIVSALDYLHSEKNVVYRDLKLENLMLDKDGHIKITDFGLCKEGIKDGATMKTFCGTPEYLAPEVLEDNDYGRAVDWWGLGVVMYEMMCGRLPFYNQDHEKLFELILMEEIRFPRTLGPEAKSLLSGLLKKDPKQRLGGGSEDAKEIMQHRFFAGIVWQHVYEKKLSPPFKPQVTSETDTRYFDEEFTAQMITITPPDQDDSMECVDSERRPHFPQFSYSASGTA

Row | SMILES | IC50 ([1]; FIG. 1, synergistic effect of conjugation, read-out: activity (PKB inhibition)) | IC50 [1, 4] | IC50 ([2]; Table 2, chimeric compounds, read-out: Activity PKA) | IC50 [2, 5] | Apoptotic index (48 hours) [3]
1 | C[C@@H](O)[C@H](NC(=O)[C@H](CCCNC(=N)N)NC(=O)[C@@H]1CCCN1C(=O)[C@@H](N)CCCNC(=N)N)C(=O)N[C@@H](CCC(=O)NCCC(=O)NCCNS(=O)(=O)c1cccc2cnccc12)C(=O)N[C@@H](CO)C(=O)N[C@@H](Cc1ccccc1)C(N)=O [compound 6082] (H-RPRTE([βAla-Ethylenediamine-Isoquinoline5sulfonyl])SF-NH2; N-terminus assumed) |  | 5540 nM |  | 200 nM | 2.6
2 | CCCC[C@H](NC(=O)[C@H](CO)NC(=O)[C@H](CCC(=O)NCCC(=O)NCCNS(=O)(=O)c1cccc2cnccc12)NC(=O)[C@H](CCCC)NC(=O)[C@H](CCCNC(=N)N)NC(=O)[C@@H]1CCCN1C(=O)[C@@H](N)CCCNC(=N)N)C(N)=O [compound 6096] (H-RPR[Nle]E([βAla-Ethylenediamine-Isoquinoline5sulfonyl])S[Nle]-NH2; N-terminus assumed) |  | 930 nM |  | 200 nM | 3.2
3 | CCCC[C@H](NC(=O)[C@H](CCCNC(=N)N)NC(=O)[C@@H]1CCCN1C(=O)[C@@H](N)CCCNC(=N)N)C(=O)N[C@@H](CCC(=O)NCCC(=O)NCCNS(=O)(=O)c1cccc2cnccc12)C(=O)N[C@@H](CCN)C(=O)N[C@@H](Cc1ccccc1)C(N)=O [compound 6140] (H-RPR[Nle]E([βAla-Ethylenediamine-Isoquinoline5sulfonyl])[Dab]F-NH2; N-terminus assumed) |  | 413 nM |  | 195 nM | 4.0

Further compounds by falling IC50 [1, 4], results first:

Row | IC50 ([1]; FIG. 1, synergistic effect of conjugation, read-out: activity (PKB inhibition)) | IC50 [1, 4] | IC50 ([2]; Table 2, chimeric compounds, read-out: Activity PKA) | IC50 [2, 5] | SMILES | Apoptotic index (48 hours) [3]
4 |  | 5000 nM |  | 5000 nM | CCC[C@H](NC(=O)[C@H](CCCNC(=N)N)NC(=O)[C@@H]1CCCN1C(=O)[C@@H](N)CCCNC(=N)N)C(=O)N[C@@H](CCC(=O)NCCC(=O)NCCNS(=O)(=O)c1cccc2cnccc12)C(=O)N[C@@H](C)C(=O)N[C@@H](CCC(C)C)C(N)=O [compound 6152] (H-RPR[Nva]E([βAla-Ethylenediamine-Isoquinoline5sulfonyl])A[hLeu]-NH2; N-terminus assumed) | 1.5
5 | 900 nM | 1000 nM | 500 nM | 100 nM | C[C@@H](O)[C@H](NC(=O)[C@H](CCCNC(=N)N)NC(=O)[C@@H]1CCCN1C(=O)[C@@H](N)CCCNC(=N)N)C(=O)N[C@@H](CCC(=O)NCCNS(=O)(=O)c1cccc2cnccc12)C(=O)N[C@@H](CO)C(=O)N[C@@H](Cc1ccccc1)C(N)=O [PTR 6016] (H-RPRTE([Ethylenediamine-Isoquinoline5sulfonyl])SF-NH2; N-terminus assumed) | 3.4
6 |  | 570 nM |  | 500 nM | CCCC[C@H](NC(=O)[C@H](CCCNC(=N)N)NC(=O)[C@@H]1CCCN1C(=O)[C@@H](N)CCCNC(=N)N)C(=O)N[C@@H](CCC(=O)NCCC(=O)NCCNS(=O)(=O)c1cccc2cnccc12)C(=O)N[C@@H](CO)C(=O)N[C@@H](Cc1ccccc1)C(N)=O [compound 6086] | 2.5
